Values quoted from earlier work as cited in patent publication US20230240327A1, “FUNCTIONAL SOYBEAN MEAL” (CAN TECHNOLOGIES, INC., priority 2020, published 2023).
Like-named read-outs stand apart in the source and are kept apart here.

Legend:
Bacteria = conditions: when in their dissociated form
microorganisms = conditions: according to several studies; compared with antibiotics
[1] = Table 7

Which Main effects (poultry; 0.50 - 1.00 wt% of feed (fumaric acid)) does the source give for `O=C(O)/C=C/C(=O)O` [Fumaric acid] here?
Its Main effects is “Improvement in weight gain of broilers”.

Which bactericidal effect (Bacteria) does the source give for `O=CO` [Formic acid] here?
Its bactericidal effect is “bactericidal effect”.

And the Main effects (poultry; 0.50 - 1.00 wt% of feed (formic acid))?
Its Main effects is “Reduction of coecal pH and bactericidal effect on Salmonella”.

Which bactericidal effect (Bacteria) does the source give for `C/C=C/C=C/C(=O)O` [Sorbic acid] here?
Its bactericidal effect is “bactericidal effect”.

And the Main effects (poultry; 1.12 wt% of feed)?
The Main effects was “Improves feed efficiency”.

For `C=CCc1ccc(O)c(OC)c1` [eugenol], which antimicrobial activity (microorganisms) is on record?
The antimicrobial activity was “stronger than in some antibiotics”.

With `CC(O)C(=O)O` (stereo not drawn) [Lactic acid] as the molecule, how does the bactericidal effect (Bacteria) read?
The bactericidal effect was “bactericidal effect”.

And the Main effects (poultry; 2.00 wt% of feed)?
The Main effects was “Feed to gain ratio significantly improved. Body weight gain”.

For `CC(C)=CCC/C(C)=C/CO` [geraniol], which antimicrobial activity (microorganisms) is on record?
Its antimicrobial activity is “stronger than in some antibiotics”.

With `O=C(O)C(O)C(O)C(=O)O` (stereo not drawn) [Tartaric acid] as the molecule, how does the Main effects (poultry; 0.33 wt% of feed) read?
The Main effects was “Improves weight gain”.

With `O=C(O)CC(O)C(=O)O` (stereo not drawn) [Malic acid] as the molecule, how does the Main effects (poultry; 0.50 - 2.00 wt% of feed) read?
The Main effects was “Increase in weight gain”.

Which antimicrobial activity (microorganisms) does the source give for `Cc1ccc(C(C)C)cc1O` [carvacrol] here?
The antimicrobial activity was “stronger than in some antibiotics”.

Which Main effects (poultry; 0.20 wt% of feed) does the source give for `O=C(O)c1ccccc1` [Benzoic acid] here?
Its Main effects is “Positive influence on growth”.

Which antimicrobial activity (microorganisms) does the source give for `Cc1ccc(C(C)C)c(O)c1` [thymol] here?
Its antimicrobial activity is “stronger than in some antibiotics”.

With `CCCC(=O)O` [Butyric acid] as the molecule, how does the Main effects (poultry; 0.15 wt% of feed (butyric acid)) read?
The Main effects was “Maintain the beneficial micro flora”.

With `CCC(=O)O` [Propionic acid (buffered), Propionic acid] as the molecule, how does the Main effects (poultry; 0.15 - 0.20 wt% of feed (buffered propionic acid)) read?
Its Main effects is “Increase in dressing percentage in female broilers”.

For `CCC(=O)O` [Propionic acid], which bactericidal effect (Bacteria) is on record?
Its bactericidal effect is “bactericidal effect”.

For `CCCCCCCCCCCC(=O)O` [Lauric acid], which pKa [1] is on record?
Its pKa is 5.13.
